ChEMBL document CHEMBL4400505, “Fibroblast Growth Factor Receptor 4 (FGFR4) Selective Inhibitors as Hepatocellular Carcinoma Therapy: Advances and Prospects” (J Med Chem, 2019)

Biological target: Fibroblast growth factor receptor 3 (Homo sapiens, UniProt P22607)
Experiment: Inhibition of N-terminal GST-fused human FGFR3 cytoplasmic domain (436 to 806(end) amino acids) using CSKtide substrate incubated for 90 mins

Chain of Fibroblast growth factor receptor 3 (P22607 whole entry, the tested form may be a part): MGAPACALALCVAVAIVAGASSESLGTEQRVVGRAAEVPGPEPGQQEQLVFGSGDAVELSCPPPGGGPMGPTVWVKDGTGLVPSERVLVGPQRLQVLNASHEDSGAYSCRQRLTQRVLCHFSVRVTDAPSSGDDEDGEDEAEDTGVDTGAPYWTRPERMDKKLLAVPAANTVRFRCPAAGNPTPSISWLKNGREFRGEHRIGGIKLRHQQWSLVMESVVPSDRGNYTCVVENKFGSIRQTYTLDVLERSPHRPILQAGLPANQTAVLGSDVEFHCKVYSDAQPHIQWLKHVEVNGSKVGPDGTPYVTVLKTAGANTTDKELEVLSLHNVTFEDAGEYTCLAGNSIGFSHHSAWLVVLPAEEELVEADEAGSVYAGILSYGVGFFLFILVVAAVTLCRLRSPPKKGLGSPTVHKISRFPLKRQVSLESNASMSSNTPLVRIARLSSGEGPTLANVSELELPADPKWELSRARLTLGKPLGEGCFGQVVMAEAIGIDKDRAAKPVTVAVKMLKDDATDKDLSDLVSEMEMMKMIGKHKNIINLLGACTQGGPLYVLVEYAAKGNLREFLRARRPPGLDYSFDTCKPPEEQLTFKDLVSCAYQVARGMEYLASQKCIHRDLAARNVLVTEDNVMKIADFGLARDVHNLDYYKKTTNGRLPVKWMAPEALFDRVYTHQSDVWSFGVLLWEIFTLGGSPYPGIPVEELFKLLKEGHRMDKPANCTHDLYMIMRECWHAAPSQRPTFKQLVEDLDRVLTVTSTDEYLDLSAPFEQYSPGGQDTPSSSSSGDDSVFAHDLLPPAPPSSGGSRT

C=CC(=O)Nc1cccc(C)c1Nc1ncc2cc(-c3c(Cl)c(OC)cc(OC)c3Cl)ccc2n1
IC50: 150 nM
